The text below walks through data of patent publication US10822339B2, “Pyrrolopyrimidine five-membered azacyclic derivative and application thereof” (HANGZHOU HUADONG MEDICINE GROUP BIOPHARMACEUTICAL CO. LTD, priority 2016, dated 2020).

Like-named read-outs stand apart in the source and are kept apart here.

Data set [1] can be described thus: Toxic side effects experiment, 14 days repeated dosing. The following applies: for toxic side effects: rat, in vivo; for organ tissues, blood biochemical parameters versus vehicle control group: once daily 30 mg/kg/day for 14 days. The method, then:
The toxic side effects of the compounds of the present invention (Ia and Ib) were studied. The rats were administered once daily at 30 mg/kg/day for 14 days consecutively.

A further data set deals with JAK2 (Homo sapiens, UniProt O60674). In words: Enzyme activity inhibition, Caliper Mobility Shift Assay. The format is biochemical. The following applies: for IC50: read-out: Kinase inhibitory activity (IC50, nM) JAK2. The method, then:
(§1) The semi-inhibitory concentration IC50 of the compounds (the concentration of the compounds required to inhibit enzyme activity to 50%) is determined by the immobilized enzyme mixed with a specific substrate and different concentrations of the test compounds. The determination method used was a Caliper Mobility Shift Assay. The kinases determined were JAK1, JAK2, JAK3 and TYK2. The standard reference compound used was staurosporine.

Another data set has as its target T1, JAK3 (Homo sapiens, UniProt P52333).
T1 sequence (P52333 1-1124): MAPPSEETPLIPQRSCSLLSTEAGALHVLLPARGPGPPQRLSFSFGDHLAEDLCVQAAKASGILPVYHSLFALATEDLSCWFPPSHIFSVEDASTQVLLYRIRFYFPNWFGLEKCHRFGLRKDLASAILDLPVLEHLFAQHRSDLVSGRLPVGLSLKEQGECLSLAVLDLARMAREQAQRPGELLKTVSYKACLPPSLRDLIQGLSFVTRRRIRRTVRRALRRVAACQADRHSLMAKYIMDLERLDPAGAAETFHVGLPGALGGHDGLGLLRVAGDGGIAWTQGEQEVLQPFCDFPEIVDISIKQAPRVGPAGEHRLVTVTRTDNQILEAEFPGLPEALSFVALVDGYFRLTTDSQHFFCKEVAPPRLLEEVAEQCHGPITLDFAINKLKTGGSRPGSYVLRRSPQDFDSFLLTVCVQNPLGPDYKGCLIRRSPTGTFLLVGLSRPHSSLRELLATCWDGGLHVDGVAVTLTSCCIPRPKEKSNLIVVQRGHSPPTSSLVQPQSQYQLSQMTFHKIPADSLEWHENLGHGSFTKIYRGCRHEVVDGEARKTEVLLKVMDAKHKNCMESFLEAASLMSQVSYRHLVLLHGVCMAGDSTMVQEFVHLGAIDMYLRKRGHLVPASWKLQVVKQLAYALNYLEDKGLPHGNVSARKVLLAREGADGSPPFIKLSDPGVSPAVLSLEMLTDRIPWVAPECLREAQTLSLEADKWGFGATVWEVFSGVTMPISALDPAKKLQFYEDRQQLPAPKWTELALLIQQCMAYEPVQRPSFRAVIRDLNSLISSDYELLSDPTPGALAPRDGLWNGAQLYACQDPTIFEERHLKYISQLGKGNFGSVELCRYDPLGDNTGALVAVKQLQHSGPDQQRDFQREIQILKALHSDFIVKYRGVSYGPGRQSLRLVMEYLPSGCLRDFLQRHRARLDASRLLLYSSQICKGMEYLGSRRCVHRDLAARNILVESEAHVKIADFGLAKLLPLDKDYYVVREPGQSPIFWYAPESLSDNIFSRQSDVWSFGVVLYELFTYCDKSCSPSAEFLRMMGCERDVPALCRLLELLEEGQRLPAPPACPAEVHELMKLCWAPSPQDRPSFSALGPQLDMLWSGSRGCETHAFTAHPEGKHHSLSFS
The data set is described as above. The format is biochemical. Conditions: read-out: Kinase inhibitory activity (IC50, nM) JAK3. The method, then: as §1

The next data set concerns the target TYK2 (Homo sapiens, UniProt P29597). The data set is described as above. The format is biochemical. Conditions: read-out: Kinase inhibitory activity (IC50, nM) TYK2. As to the method:
as §1

Another data set concerns the target T2, hERG (Homo sapiens, UniProt Q12809).
T2 construct: expressed in transfected cells; host or cells: HEK293
Put plainly: Whole cell hERG potassium channel current blocking, automatic patch clamp. In kind it is cell-based. Conditions: HEK293 cells expressing hERG stably. The text has this: Potassium channel current blocking percentage of whole cell hERG by the compounds of the present invention is studied using HEK293 cells expressing hERG stably and automatic patch clamp system detection method, the dose-effect relationship curve was obtained. The positive drug is Cisapride.

Data set [2] concerns adjuvant-induced arthritis. In words: Rat adjuvant-induced arthritis efficacy model. The following applies: oral; for animal clinical scores / paw volumes: dose groups of 10 mg/kg and 15 mg/kg; for animal body weight increase versus vehicle group: treatment groups, 14 days dosing. In kind it is in vivo.
Data set [3] can be described thus: Pharmacokinetic experiments in Beagles. The format is in vivo. The following applies: single administration; for half-life: read-out: Terminal t1/2 (converted). As to the method: Experimental animals: Beagles, male and female; body weight: 7-9 kg;
Preparation of test samples: the compound (Ia) of the present invention was formulated into 2.5 mg/mL (for intravenous administration) and 2.0 mg/mL (for oral administration) for use. Routes of administration: oral/intravenous injection. Dosing capacity and frequency: 2 mL/kg (intravenous injection) or 5 mL/kg (oral), single administration.
Sample collection: blood was collected at the following time points: post-dose at 5 min, 15 min, 30 min, 1 hr, 2 hrs, 4 hrs, 8 hrs, and 24 hrs.
Sample analysis: The collected samples were tested using the LC-MS/MS method. The instrument model is API4000.
Pharmacokinetic data analysis: WinNolin was used to fit and calculate the obtained plasma concentration data according to the non-compartmental model method.

In the next data set the target is JAK1 (Homo sapiens, UniProt P23458). Put plainly: Enzyme activity inhibition, Caliper Mobility Shift Assay. In kind it is biochemical. The following applies: read-out: Kinase inhibitory activity (IC50, nM) JAK1. The method, then:
as §1

The mark [4] stands for this setting: both sexes, beagle, dog, plasma, intravenous injection, 5 mg/kg.
Setting [5] is: both sexes, beagle, dog, plasma, oral, 10 mg/kg.

Chain of JAK2 (O60674 whole entry): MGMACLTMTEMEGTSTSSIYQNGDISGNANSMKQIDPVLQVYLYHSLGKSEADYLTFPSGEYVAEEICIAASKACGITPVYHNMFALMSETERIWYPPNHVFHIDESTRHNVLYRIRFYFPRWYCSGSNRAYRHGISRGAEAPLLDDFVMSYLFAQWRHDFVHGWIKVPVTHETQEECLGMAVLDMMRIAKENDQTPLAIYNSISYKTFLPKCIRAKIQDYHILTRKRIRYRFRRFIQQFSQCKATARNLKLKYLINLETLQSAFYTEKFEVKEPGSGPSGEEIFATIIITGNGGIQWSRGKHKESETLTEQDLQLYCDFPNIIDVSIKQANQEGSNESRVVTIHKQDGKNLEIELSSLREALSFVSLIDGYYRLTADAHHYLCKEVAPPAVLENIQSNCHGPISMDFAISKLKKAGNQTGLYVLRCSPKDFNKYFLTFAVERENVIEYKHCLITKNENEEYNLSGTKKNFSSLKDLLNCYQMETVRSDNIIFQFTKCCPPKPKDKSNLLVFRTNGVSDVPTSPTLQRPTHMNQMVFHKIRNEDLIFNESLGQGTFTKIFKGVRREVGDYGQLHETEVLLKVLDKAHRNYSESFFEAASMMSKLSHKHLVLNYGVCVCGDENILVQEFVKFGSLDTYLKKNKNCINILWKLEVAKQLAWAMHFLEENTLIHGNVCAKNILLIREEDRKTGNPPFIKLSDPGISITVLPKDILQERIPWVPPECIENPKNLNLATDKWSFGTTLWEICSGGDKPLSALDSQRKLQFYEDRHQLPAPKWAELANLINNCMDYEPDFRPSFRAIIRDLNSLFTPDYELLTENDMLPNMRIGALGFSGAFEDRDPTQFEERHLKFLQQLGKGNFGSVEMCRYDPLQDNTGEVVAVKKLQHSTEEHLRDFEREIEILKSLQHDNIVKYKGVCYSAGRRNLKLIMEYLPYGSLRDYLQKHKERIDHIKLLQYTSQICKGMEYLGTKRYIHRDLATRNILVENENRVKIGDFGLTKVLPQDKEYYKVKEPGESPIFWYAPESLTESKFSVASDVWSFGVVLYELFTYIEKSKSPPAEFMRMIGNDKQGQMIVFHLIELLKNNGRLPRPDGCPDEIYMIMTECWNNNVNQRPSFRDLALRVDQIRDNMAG
T2 sequence (Q12809 whole entry): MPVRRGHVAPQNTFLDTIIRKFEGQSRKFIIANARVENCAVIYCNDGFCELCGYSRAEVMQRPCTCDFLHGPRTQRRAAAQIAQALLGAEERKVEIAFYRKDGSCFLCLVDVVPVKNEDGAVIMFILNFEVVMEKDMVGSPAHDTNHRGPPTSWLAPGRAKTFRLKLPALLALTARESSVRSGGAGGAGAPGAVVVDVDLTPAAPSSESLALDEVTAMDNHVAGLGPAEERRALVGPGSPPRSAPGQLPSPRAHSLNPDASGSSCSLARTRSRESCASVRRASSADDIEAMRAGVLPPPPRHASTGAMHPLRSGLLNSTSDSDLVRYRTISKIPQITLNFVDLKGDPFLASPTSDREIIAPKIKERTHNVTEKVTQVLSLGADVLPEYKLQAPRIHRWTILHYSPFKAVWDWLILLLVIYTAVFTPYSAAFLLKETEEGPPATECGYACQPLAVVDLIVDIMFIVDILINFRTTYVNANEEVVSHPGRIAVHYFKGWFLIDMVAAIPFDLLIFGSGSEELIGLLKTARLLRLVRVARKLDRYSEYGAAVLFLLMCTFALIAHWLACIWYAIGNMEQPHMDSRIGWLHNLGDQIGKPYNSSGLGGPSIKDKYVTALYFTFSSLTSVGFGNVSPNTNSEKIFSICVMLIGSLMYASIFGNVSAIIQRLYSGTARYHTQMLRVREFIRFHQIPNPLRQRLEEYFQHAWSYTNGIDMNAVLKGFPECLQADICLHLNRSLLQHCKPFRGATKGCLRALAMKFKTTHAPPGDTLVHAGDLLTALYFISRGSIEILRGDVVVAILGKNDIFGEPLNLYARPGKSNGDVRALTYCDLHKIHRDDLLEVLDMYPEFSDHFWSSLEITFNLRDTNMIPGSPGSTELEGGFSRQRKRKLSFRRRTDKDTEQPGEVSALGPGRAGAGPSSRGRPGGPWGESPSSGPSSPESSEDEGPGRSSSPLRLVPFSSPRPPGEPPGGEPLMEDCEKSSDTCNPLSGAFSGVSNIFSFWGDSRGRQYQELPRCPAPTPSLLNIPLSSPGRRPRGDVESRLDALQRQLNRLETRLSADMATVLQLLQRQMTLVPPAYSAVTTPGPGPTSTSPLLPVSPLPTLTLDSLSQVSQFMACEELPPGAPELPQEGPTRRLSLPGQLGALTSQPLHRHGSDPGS
Chain of TYK2 (P29597 whole entry): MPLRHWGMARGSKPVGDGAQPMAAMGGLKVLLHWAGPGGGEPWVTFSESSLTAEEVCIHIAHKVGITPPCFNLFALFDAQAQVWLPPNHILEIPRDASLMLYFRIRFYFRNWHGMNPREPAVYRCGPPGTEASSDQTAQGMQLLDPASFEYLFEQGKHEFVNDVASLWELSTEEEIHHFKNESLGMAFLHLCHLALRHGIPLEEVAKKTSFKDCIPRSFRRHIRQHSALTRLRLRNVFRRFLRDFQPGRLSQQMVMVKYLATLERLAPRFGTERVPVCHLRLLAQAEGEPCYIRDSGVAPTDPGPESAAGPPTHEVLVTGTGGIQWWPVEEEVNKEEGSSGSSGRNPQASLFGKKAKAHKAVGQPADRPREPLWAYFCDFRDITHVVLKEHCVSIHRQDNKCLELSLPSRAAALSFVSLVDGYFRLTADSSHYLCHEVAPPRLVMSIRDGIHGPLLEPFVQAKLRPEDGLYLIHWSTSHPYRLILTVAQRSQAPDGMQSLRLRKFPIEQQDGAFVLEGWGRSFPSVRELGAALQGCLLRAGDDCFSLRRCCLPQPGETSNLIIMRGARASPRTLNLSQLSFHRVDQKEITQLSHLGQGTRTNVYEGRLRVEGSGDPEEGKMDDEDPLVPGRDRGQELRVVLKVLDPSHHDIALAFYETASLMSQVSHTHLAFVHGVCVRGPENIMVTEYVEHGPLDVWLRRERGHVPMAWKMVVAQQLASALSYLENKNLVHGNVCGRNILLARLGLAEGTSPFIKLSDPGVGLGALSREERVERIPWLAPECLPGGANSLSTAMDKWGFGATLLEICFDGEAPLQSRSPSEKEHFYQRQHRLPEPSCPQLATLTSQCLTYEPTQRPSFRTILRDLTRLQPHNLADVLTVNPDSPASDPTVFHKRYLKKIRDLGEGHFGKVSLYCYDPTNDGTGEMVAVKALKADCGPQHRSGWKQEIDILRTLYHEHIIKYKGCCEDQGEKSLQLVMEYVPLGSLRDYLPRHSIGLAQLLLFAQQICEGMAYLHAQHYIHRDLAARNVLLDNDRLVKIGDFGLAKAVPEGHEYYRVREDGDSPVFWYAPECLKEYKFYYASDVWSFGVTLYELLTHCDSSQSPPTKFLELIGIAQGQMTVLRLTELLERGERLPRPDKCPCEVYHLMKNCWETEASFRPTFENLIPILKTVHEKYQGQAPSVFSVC
Chain of JAK1 (P23458 whole entry): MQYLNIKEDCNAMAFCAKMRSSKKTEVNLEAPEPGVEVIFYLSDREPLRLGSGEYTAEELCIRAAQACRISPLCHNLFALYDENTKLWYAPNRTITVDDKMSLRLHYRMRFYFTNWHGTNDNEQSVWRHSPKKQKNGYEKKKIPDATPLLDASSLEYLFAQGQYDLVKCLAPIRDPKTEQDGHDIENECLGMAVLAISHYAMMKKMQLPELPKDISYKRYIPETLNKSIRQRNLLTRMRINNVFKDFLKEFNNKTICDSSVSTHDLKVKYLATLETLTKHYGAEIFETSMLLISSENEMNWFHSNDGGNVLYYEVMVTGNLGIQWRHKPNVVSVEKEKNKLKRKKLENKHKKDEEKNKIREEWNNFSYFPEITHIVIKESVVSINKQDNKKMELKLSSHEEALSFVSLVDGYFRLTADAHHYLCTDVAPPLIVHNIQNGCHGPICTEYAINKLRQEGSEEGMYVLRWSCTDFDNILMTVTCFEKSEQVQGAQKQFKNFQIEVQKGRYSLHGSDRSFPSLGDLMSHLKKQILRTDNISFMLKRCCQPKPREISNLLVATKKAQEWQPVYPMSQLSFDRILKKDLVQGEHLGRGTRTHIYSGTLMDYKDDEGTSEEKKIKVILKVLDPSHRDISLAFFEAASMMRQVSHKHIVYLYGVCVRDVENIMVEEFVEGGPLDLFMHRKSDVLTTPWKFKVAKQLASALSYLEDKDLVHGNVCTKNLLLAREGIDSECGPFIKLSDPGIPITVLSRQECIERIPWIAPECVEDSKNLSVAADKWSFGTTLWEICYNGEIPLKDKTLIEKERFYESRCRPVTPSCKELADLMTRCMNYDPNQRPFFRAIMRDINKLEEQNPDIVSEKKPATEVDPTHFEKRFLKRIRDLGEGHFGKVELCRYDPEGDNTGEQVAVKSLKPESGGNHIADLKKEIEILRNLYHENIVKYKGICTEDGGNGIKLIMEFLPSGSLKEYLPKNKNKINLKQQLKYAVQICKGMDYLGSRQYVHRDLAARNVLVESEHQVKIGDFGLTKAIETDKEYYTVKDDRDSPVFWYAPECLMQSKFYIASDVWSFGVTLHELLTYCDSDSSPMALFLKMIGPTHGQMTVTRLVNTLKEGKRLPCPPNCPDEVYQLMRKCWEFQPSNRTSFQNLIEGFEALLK

In the case of `CCS(=O)(=O)N1CC(CC#N)(n2cc(-c3ncnc4[nH]ccc34)cn2)C1` [Baricitinib, reference compound], in data set [1] (30 mg/kg/day), the toxic side effects entry is “certain toxic side effects”. The “thymus and spleen tissues size” value in data set [1] (rats, 30 mg/kg/day, same experiment) is given as “significantly reduced (a quarter of the normal size)”.

In the case of `CCS(=O)(=O)N1CCC(CC#N)(n2cc(-c3ncnc4[nH]ccc34)cn2)CC1` [Compound of formula Ia], on JAK2, the “inhibitory effects on JAK2 kinase” value is given as “very strong inhibitory effects” and the IC50 was 0.2 nM. Further, on JAK3, the IC50 was found to be 27 nM. The IC50 at TYK2 came out at 7.3 nM. The compound also gave an IC50 against hERG above 30000 nM. Also, in data set [2], the animal clinical scores result is “almost close to the normal group”, the paw volumes result is recorded as “almost close to the normal group” and the “animal body weight increase versus vehicle group” value is “greater increases in animal body weight than that of the vehicle group”. Further, in data set [3] (setting [4]), the AUC(0-t) was found to be 10900 ng·h/mL, the MRT inf was 4.16 h, the clearance is 7.5 mL/min/kg and the half-life is 4.78 h. Further, the Vd in data set [3] (both sexes, beagle, dog, plasma, intravenous injection, 5 mg/kg, read-out: Vss) amounted to 1.85 L/kg. Further, in data set [3] (setting [5]), the exposure AUC(0-t) stood at 10600 ng·h/mL, the peak level (Cmax) was 2500 ng/mL, the Tmax was determined as 0.25 h and the half-life was 5.79 h. The compound also displayed a F in data set [3] (oral, 10 mg/kg) of 49.4%. In addition, the toxic side effects result in data set [1] (30 mg/kg/day) is “no obvious toxic side effects”. In addition, in data set [1] (rats), the “organ tissues, blood biochemical parameters versus vehicle control group” value was “no significant difference”.

For the compound `CCS(=O)(=O)N1CCC(CC#N)(n2ccc(-c3ncnc4[nH]ccc34)c2)CC1` [Compound of formula Ib], on JAK1, the IC50 was found to be 31 nM. Moreover, on JAK2, the “inhibitory effects on JAK2 kinase” value was “very strong inhibitory effects” and the IC50 worked out at 0.4 nM. For the same compound, on JAK2 (JAK2 versus the other kinases tested), the selective inhibitory activities result was “good selective inhibitory activities”. On hERG, this compound yielded an IC50 above 30000 nM. Besides, in data set [2], the animal clinical scores entry is “almost close to the normal group”, the paw volumes result was “almost close to the normal group” and the “animal body weight increase versus vehicle group” value is “greater increases in animal body weight than that of the vehicle group”. The toxic side effects result in data set [1] (30 mg/kg/day) is reported as “no obvious toxic side effects”. Besides, the “organ tissues, blood biochemical parameters versus vehicle control group” value in data set [1] (rats) was “no significant difference”.
